In brackets after ≈: the same amount, converted by molar mass.
Tests used:
[1] = tested on: Mycobacterium tuberculosis; experiment: Antimycobacterial activity against Mycobacterium tuberculosis H37Rv; type: functional
Vero = experiment: Cytotoxicity in African green monkey Vero cells assessed as reduction in cell viability; type: toxicity, cell-based; conditions: chlorocebus sabaeus

**Q.** For `Cc1ccc2c(c1)nc(NC(=O)c1cc(C(N)=S)ccn1)n2C`, which MIC [1] is on record?
**A.** The MIC was 3.14 µM (≈ 1.02 µg/mL).

**Q.** And the Activity (Vero)?
**A.** The Activity was > 100 µM.

**Q.** With `CC[C@@H](CO)NCCN[C@@H](CC)CO` [ETHAMBUTOL] as the compound, how does the MIC [1] read?
**A.** The MIC was 5.01 µM (≈ 1.02 µg/mL).

**Q.** And the Activity (Vero)?
**A.** Its Activity is > 100 µM.

**Q.** Which MIC [1] does the source give for `Cn1cc(C#N)nc1NC(=O)c1cc(C(N)=S)ccn1` here?
**A.** Its MIC is 1.24 µM (≈ 0.355 µg/mL).

**Q.** And the Activity (Vero)?
**A.** Its Activity is > 100 µM.

**Q.** With `Cn1c(NC(=O)c2cc(C(N)=S)ccn2)nc2ccccc21` as the compound, how does the MIC [1] read?
**A.** Its MIC is 6.52 µM (≈ 2.03 µg/mL).

**Q.** What about the Activity (Vero) of the same compound?
**A.** Its Activity is > 100 µM.

**Q.** Which results are given for `O=C(O)c1cn(C2CC2)c2cc(N3CCNCC3)c(F)cc2c1=O` [CIPROFLOXACIN]?
**A.** MIC [1]: 4.73 µM (≈ 1.57 µg/mL); Activity (Vero): > 100 µM

**Q.** Which results are given for `NC(=S)c1ccnc(C(=O)Nc2ncc[nH]2)c1`?
**A.** MIC [1]: 23.8 µM (≈ 5.9 µg/mL); Activity (Vero): > 100 µM

**Q.** With `Cc1cn(C)c(NC(=O)c2cc(C(N)=S)ccn2)n1` as the compound, how does the MIC [1] read?
**A.** Its MIC is 13.6 µM (≈ 3.75 µg/mL).

**Q.** And the Activity (Vero)?
**A.** Its Activity is > 100 µM.

**Q.** What does the source list for `CCc1cc(C(N)=S)ccn1` [ETHIONAMIDE]?
**A.** MIC [1]: 6.63 µM (≈ 1.1 µg/mL); Activity (Vero): > 100 µM

**Q.** With `Cn1ccnc1NC(=O)c1cc(C(N)=S)ccn1` as the compound, how does the MIC [1] read?
**A.** The MIC was 15.1 µM (≈ 3.95 µg/mL).

**Q.** And the Activity (Vero)?
**A.** The Activity was > 100 µM.

**Q.** For `NC(=O)c1cnccn1` [PYRAZINAMIDE], which MIC [1] is on record?
**A.** Its MIC is 3.12 µM (≈ 0.384 µg/mL).

**Q.** What about the Activity (Vero) of the same compound?
**A.** The Activity was > 100 µM.

**Q.** Which results are given for `Cn1cc(O)nc1NC(=O)c1cc(C(N)=S)ccn1`?
**A.** MIC [1]: 0.97 µM (≈ 0.269 µg/mL); Activity (Vero): > 100 µM

**Q.** Which MIC [1] does the source give for `COc1ccc2c(c1)nc(NC(=O)c1cc(C(N)=S)ccn1)n2C` here?
**A.** Its MIC is 0.35 µM (≈ 0.119 µg/mL).

**Q.** And the Activity (Vero)?
**A.** The Activity was > 100 µM.

**Q.** What does the source list for `NNC(=O)c1ccncc1` [ISONIAZID]?
**A.** MIC [1]: 0.36 µM (≈ 0.0494 µg/mL); Activity (Vero): > 100 µM

**Q.** Which results are given for `Cn1c(NC(=O)c2cc(C(N)=S)ccn2)nc2cc(O)ccc21`?
**A.** MIC [1]: 0.27 µM (≈ 0.0884 µg/mL); Activity (Vero): > 100 µM

**Q.** With `NC(=S)c1ccnc(C(=O)Nc2nc3ccccc3[nH]2)c1` as the compound, how does the MIC [1] read?
**A.** Its MIC is 12.6 µM (≈ 3.73 µg/mL).

**Q.** And the Activity (Vero)?
**A.** Its Activity is > 100 µM.

Source: ChEMBL document CHEMBL5143581, “Design, synthesis and molecular docking studies of imidazole and benzimidazole linked ethionamide derivatives as inhibitors of InhA and antituberculosis agents” (Bioorg Med Chem Lett, 2022)
